≈ marks a conversion by molar mass, not a printed value. Like-named read-outs stand apart in the source and are kept apart here.
Columns and labels:
Assay type in all cases: cell-based
[1] = test system: Escherichia coli SOL 90; experiment: MIC, in vitro dilution method, Escherichia coli SOL 90 (Table III); settings: SOL90; Escherichia coli SOL 90; dilution method; read-out: MIC
Method in brief: (§1)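 Compounds are serially diluted in vitro and tested for bacteriostatic effect on each Gram-negative strain; the lowest inhibiting concentration is recorded as MIC (μg/ml).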

[2] = test system: Citrobacter RL 49; experiment: MIC, in vitro dilution method, Citrobacter RL 49 (Table III); settings: RL49
Method in brief: as §1

[3] = test system: Proteus vulgaris GN 76/C.1/3; experiment: MIC on strain not producing beta-lactamase, Proteus vulgaris GN 76/C.1/3 (Table IV); settings: GN76, not producing beta-lactamases
Protocol: (§2) To evaluate the stability of these products towards beta-lactamases, their MIC was determined on isogenic strains producing and not producing beta-lactamases.
(§3) The results are expressed in μg/ml in Table IV.

[4] = test system: Proteus vulgaris RL 99 bis; experiment: MIC, in vitro dilution method, Proteus vulgaris RL 99 bis (Table III); settings: RL99BIS
Method in brief: as §1

[5] = test system: Serrtia liquefaciens SL 1326 S; experiment: MIC on strain not producing beta-lactamase, Serratia liquefaciens SL 1326 S (Table IV); settings: SL1326S, not producing beta-lactamases
Protocol: as §2, §3

[6] = test system: Serratia RL 72; experiment: MIC, in vitro dilution method, Serratia RL 72 (Table III); settings: RL72
Method in brief: as §1

[7] = test system: Proteus vulgaris GN 76/C.1; experiment: MIC on beta-lactamase producing strain Proteus vulgaris GN 76/C.1 (Table IV); settings: GN76
Protocol: as §2, §3

[8] = test system: Klebsiella RO 30; experiment: MIC, in vitro dilution method, Klebsiella RO 30 (Table III); settings: RO30; Klebsiella RO 30; dilution method; read-out: MIC
Method in brief: as §1

[9] = test system: Pseudomonas RL 112; experiment: MIC, in vitro dilution method, Pseudomonas RL 112 (Table III); settings: RL112
Method in brief: as §1

[10] = test system: Enterobacter RO 154; experiment: MIC, in vitro dilution method, Enterobacter RO 154 (Table III); settings: RO154
Method in brief: as §1

[11] = test system: Serrtia liquefaciens SL/326 A; experiment: MIC on beta-lactamase producing strain Serratia liquefaciens SL/326 A (Table IV)
Protocol: as §2, §3

[12] = test system: Escherichia coli 255; experiment: MIC on beta-lactamase producing strain Escherichia coli 255 (Table IV); settings: Escherichia coli 255, producing beta-lactamases; read-out: MIC
Protocol: as §2, §3

[13] = test system: Escherichia coli 255/L.7; experiment: MIC on strain not producing beta-lactamase, Escherichia coli 255/L.7 (Table IV); settings: Escherichia coli 255/L.7 *, not producing beta-lactamases; read-out: MIC
Protocol: as §2, §3

[14] = Citrobacter RL 49, dilution method, read-out: MIC
[15] = Proteus vulgaris GN 76/C.1, producing beta-lactamases, read-out: MIC
[16] = Enterobacter RO 154, dilution method, read-out: MIC
[17] = Proteus vulgaris RL 99 bis, dilution method, read-out: MIC

SMILES | MIC [1] | MIC [2, 14] | MIC [3] | MIC ([4]; Proteus vulgaris) | MIC [5] | MIC [6] | MIC [7, 15] | MIC [8] | MIC [9] | MIC [10, 16] | MIC [11] | MIC [12] | MIC [13] | MIC ([2]; Citrobacter) | MIC ([7]; Proteus vulgaris) | MIC ([10]; Enterobacter) | MIC [4, 17]
NCC(=O)Nc1nc(C(=O)OCC2=C(C(=O)O)N3C(=O)C(NC(=O)C(=NOC4(C(=O)O)CCC4)c4csc(N)n4)C3[S+]([O-])C2)cs1 (centres unmarked) [42 547] | 0.5 µg/mL (≈ 0.718 µM) | 0.25 µg/mL (≈ 0.359 µM) | 0.25 µg/mL (≈ 0.359 µM) | ≤ 0.125 µg/mL | 0.125 µg/mL (≈ 0.179 µM) | 0.5 µg/mL (≈ 0.718 µM) | 0.0625 µg/mL (≈ 0.0897 µM) | 0.25 µg/mL (≈ 0.359 µM) | 4 µg/mL (≈ 5.74 µM) | 0.5 µg/mL (≈ 0.718 µM) | 2 µg/mL (≈ 2.87 µM) | 0.125 µg/mL (≈ 0.179 µM) | ≤ 0.0312 µg/mL | – | – | – | –
CC(C)(O/N=C(\C(=O)NC1C(=O)N2C(C(=O)O)=C(COC(=O)CC3CCNCC3)C[S+]([O-])C12)c1csc(N)n1)C(=O)O (centres unmarked) [42 474] | 0.25 µg/mL (≈ 0.399 µM) | – | 0.0625 µg/mL (≈ 0.0997 µM) | ≤ 0.125 µg/mL | ≤ 0.0312 µg/mL | 0.25 µg/mL (≈ 0.399 µM) | – | 0.25 µg/mL (≈ 0.399 µM) | 4 µg/mL (≈ 6.38 µM) | – | 0.125 µg/mL (≈ 0.199 µM) | 0.0625 µg/mL (≈ 0.0997 µM) | 0.0625 µg/mL (≈ 0.0997 µM) | ≤ 0.125 µg/mL | 0.0625 µg/mL (≈ 0.0997 µM) | ≤ 0.125 µg/mL | –
CC(C)(ON=C(C(=O)NC1C(=O)N2C(C(=O)O)=C(CSC(=O)c3cccc(CN)c3)C[S+]([O-])C12)c1csc(N)n1)C(=O)O (centres unmarked) [compound 42531] | 0.5 µg/mL (≈ 0.768 µM) | 0.25 µg/mL (≈ 0.384 µM) | – | ≤ 0.125 µg/mL | 0.0625 µg/mL (≈ 0.096 µM) | 0.5 µg/mL (≈ 0.768 µM) | – | 0.25 µg/mL (≈ 0.384 µM) | 8 µg/mL (≈ 12.3 µM) | 0.5 µg/mL (≈ 0.768 µM) | 0.125 µg/mL (≈ 0.192 µM) | 0.125 µg/mL (≈ 0.192 µM) | 0.0625 µg/mL (≈ 0.096 µM) | – | 0.0625 µg/mL (≈ 0.096 µM) | – | –
CC(N)CC(=O)OCC1=C(C(=O)O)N2C(=O)C(NC(=O)C(=NOC(C)(C)C(=O)O)c3csc(N)n3)C2[S+]([O-])C1 (centres unmarked) [42 024] | 0.5 µg/mL (≈ 0.852 µM) | 0.5 µg/mL (≈ 0.852 µM) | – | – | 0.06 µg/mL (≈ 0.102 µM) | 0.5 µg/mL (≈ 0.852 µM) | 0.25 µg/mL (≈ 0.426 µM) | 0.25 µg/mL (≈ 0.426 µM) | 4 µg/mL (≈ 6.82 µM) | 2 µg/mL (≈ 3.41 µM) | 0.25 µg/mL (≈ 0.426 µM) | 0.25 µg/mL (≈ 0.426 µM) | ≤ 0.12 µg/mL | – | – | – | 0.25 µg/mL (≈ 0.426 µM)
CC(C)(O/N=C(\C(=O)NC1C(=O)N2C(C(=O)O)=C(COC(=O)C3(N)CCCC3)C[S+]([O-])C12)c1csc(N)n1)C(=O)O (centres unmarked) [41 975] | 0.25 µg/mL (≈ 0.408 µM) | 0.5 µg/mL (≈ 0.816 µM) | – | – | ≤ 0.12 µg/mL | 4 µg/mL (≈ 6.53 µM) | 0.5 µg/mL (≈ 0.816 µM) | 0.5 µg/mL (≈ 0.816 µM) | 8 µg/mL (≈ 13.1 µM) | 8 µg/mL (≈ 13.1 µM) | 0.25 µg/mL (≈ 0.408 µM) | 0.5 µg/mL (≈ 0.816 µM) | 0.5 µg/mL (≈ 0.816 µM) | – | – | – | 0.5 µg/mL (≈ 0.816 µM)
